Test results as given in patent US20110117168A1, “METHODS AND COMPOSITIONS FOR SOFT TISSUE REPAIR” (AFFINERGY, INC., priority 2009, published 2011).
Ends that are not written are not given here.

Legend:
Type in all cases: cell-based, human
MSCs [1] = test: Osteoblast differentiation of peptide-captured MSCs (Alizarin Red S); settings: 14 days in osteoblast differentiation medium
Method: Osteoblast differentiation. For osteogenic differentiation, the MSCs present in the […] column eluants (see Example 6) were cultured for 14 days in complete medium supplemented with 0.1 μM dexamethasone, 50 μM ascorbate-2-phosphate, 10 mM β-glycerophosphate, and 1% antibiotic/antimycotic. Calcium mineralization was measured by Alizarin Red S (SIGMA) staining to reveal mineralizing osteoblasts (see FIG. 26, panel C (undifferentiated MSCs) and panel D (osteoblast differentiated MSCs)).

MSCs [2] = test: Immunoreactivity of cells captured from bone marrow aspirate; settings: CD29, CD44, CD73, CD105, CD166, CD90, CD45, CD34
Method: (§1) This experiment was performed to examine the ability of cell binding peptide SEQ ID NO: 4 to capture MSCs directly from bone marrow aspirate in comparison to two separate antibodies against the CD105 I antigen (CD105) and the MSCA-1 stem cell antigen (MSCA-1). This experiment employed biotinylated peptides with streptavidin-coated […] magnetic beads. The peptides were biotinylated as described herein at Example 2. […] For the antibody capture experiment, magnetic beads having covalently attached CD105 or MSCA-1 antibody were employed ([…]). Prior to incubation with the peptides and antibodies, bone marrow aspirate (BMA) was mixed with 5 volumes of 10 mM ammonium chloride for 1-2 min at room temperature to lyse red blood cells. The lysate was centrifuged for 5 min at 300×g and the supernatant discarded. The cell pellet was washed with wash buffer (PBS+0.5% bovine serum albumin+0.5 mM EDTA) and cells were resuspended in […] peptide at a concentration of 10^8 per mL. For peptide binding studies, the cell suspension was incubated with the biotinylated peptides for 30 min at 4° C. to allow for binding. After incubation, cells were spun down at 300×g for 5 min, and peptide solution was aspirated. Cells were then rinsed twice with wash buffer, with centrifugation between washes. […] Colony forming units (CFUs) were counted after 14 days in culture. […]

MSCs [3] = test: Capture of MSCs from bone marrow aspirate, colony forming units; settings: biotinylated peptide, streptavidin-coated MILTENYI beads; compared to CD105 and MSCA-1 antibody beads
Method: as §1

MSCs [4] = test: Chondrocyte differentiation of peptide-captured MSCs (aggrecan immunostaining); settings: 24 days in CHONDRODIFF medium
Method: Chondrocyte differentiation. To examine chondrocyte differentiation, the MSCs present in the […] column eluants (see Example 6) were pelleted by centrifugation at 150×g for 5 minutes. Cells were washed once with 1 ml MACS NH CHONDRODIFF Medium without disturbing the pellet. Cells were spun again and 1 mL CHONDRODIFF Medium was added to each pellet. Every third day, medium was aspirated and replaced with fresh pre-warmed medium. After 24 days in culture, cells exposed to CHONDRODIFF medium formed cartilage plugs or nodules, whereas control cells formed only loose or small nodules. Cells were washed once with PBS and fixed in neutral buffered formalin overnight. Sections were embedded in paraffin and sectioned at 5 microns. Sections were examined by hemotoxylin and eosin staining (data not shown). Sections were further examined by immunostaining for aggrecan, a major structural component of cartilage. In FIG. 27, sections from the periphery (panels A and B) or center (panels C and D) were incubated with an antibody against aggrecan (ABCAM) (panels B and D) or with secondary detection reagents only as a control (panels A and C), then counterstained with DAPI to reveal cell nuclei. […] Control images of captured cells grown in the absence of differentiation medium could not be taken due to the small and loose nature of nodules.

For “SSFWDVCQGDGTCYGGGSR (SSFWDVCQGDGTCYGGGSRGSSG-{K(biotin)}; cysteine pairing not given here) [SEQ ID NO: 4, tested biotinylated with GSSGK(biotin) or other spacer at the C-terminus]”, the “osteoblast differentiation of captured MSCs” value (MSCs [1]) was “osteogenic pathway remains intact”, the “immunoreactivity of isolated cells compared with CD105 isolated cells” value (MSCs [2]) was “no changes were observed” and the “MSC capture from bone marrow aspirate (CFUs after 14 days in culture)” value (MSCs [3]) was “as efficient as capture by either of the CD105 or MSCA-1 antibodies”. For the same sequence, the “chondrocyte differentiation of captured MSCs (aggrecan)” value (MSCs [4]) was “aggrecan could be detected”.
